Laboratory results from article PMC3095640, “Potent Host-Directed Small-Molecule Inhibitors of Myxovirus RNA-Dependent RNA-Polymerases” (PLoS ONE, 2011).
Read-outs that look alike come from different tables or passages of the source.

Legend:
[1] = Cytotoxicity (metabolic activity), CHO; type: cell-based, Rodent-Chinese hamster; details: Chinese hamster, CHO cells, highest concentration assessed 75 µM
Method: (§1) A non-radioactive cytotoxicity assay (CytoTox 96 Non-Radioactive Cytotoxicity Assay, Promega) was employed to determine the metabolic activity of cell after exposure to the compound. In a 96-well plate format, 10,000 cells per well were incubated at 37°C for 24 hours in four replicates per concentration tested in the presence of compound in two-fold dilutions starting at 75 µM. Substrate was then added and color development measured at 490 nm using a BioRad plate reader. Values were calculated according to the formula [% toxicity = 100−((experimental-background)/(maximum(vehicle treated)-background)*100)]. Values were plotted in dose-response curves and, if applicable, CC50 concentrations calculated.

HPIV3 = assay: microbe, parasite or virus in culture; type: cell-based, human parainfluenzavirus type 3; details: Human respirovirus 3; titered through plaque assaying
sindbis virus = type: cell-based; details: compared with activity against myxoviruses
[2] = Cytotoxicity (metabolic activity), MEL B16; type: cell-based, Rodent-mouse; details: mouse, MEL B16 cells, highest concentration assessed 75 µM
Method: as §1

cdc2-cyclin B kinase = assay: Immunoblot of cdc2-cyclin B kinase phosphorylation status; type: cell-based; details: phospho-cdc2 (Tyr15)
MuV (S. Africa) = assay: microbe, parasite or virus in culture; type: cell-based, mumps virus strain South Africa; details: Mumps orthorubulavirus; titered through plaque assaying
RSV (Long) = assay: microbe, parasite or virus in culture; type: cell-based, respiratory syncytial virus strain Long; details: human respiratory syncytial virus; titered through plaque assaying
Influenza A/WSN [3] = assay: Virus yield reduction assay, influenza A/WSN; type: cell-based, influenza A strain WSN (H1N1)
MeV-Alaska [4] = assay: Post-infection time-of-addition assay; type: cell-based, measles virus; details: 1.0 µM added at times post-infection
Influenza A/WSN [5] = assay: Quantitation of influenza A/WSN antigenome and released progeny genome copies; type: cell-based; details: MDCK cells, 24 hours
[6] = Cytotoxicity (metabolic activity), HT1080; type: cell-based; details: human, HT1080 cells, highest concentration assessed 75 µM
Method: as §1

SOI Influenza A/Mexico = assay: Virus yield reduction assay, SOI influenza A/Mexico; type: cell-based, swine-origin influenza virus isolate S-OIV Mexico; details: genome copy numbers of released progeny particles by TaqMan RT-PCR
MeV RdRp = MeV RdRp (Measles morbillivirus (Measles virus), UniProt P12576); assay: MeV minireplicon luciferase reporter assay; type: cell-based; details: BHK-T7 cells, 36 hours
Method: BSR T7/5 cells (5×10^5/well) were transfected with plasmid DNAs encoding MeV-L (0.24 µg), MeV-N (0.94 µg) or MeV-P (0.29 µg) and 2 µg of the MeV luciferase minigenome reporter plasmid. Control wells included identical amounts of reporter and helper plasmids but lacked the L-encoding plasmid. At the time of transfection, JMN3-003 was added as specified, while control wells received vehicle only for comparison. Thirty-six hours post-transfection, cells were lysed with Bright GLO lysis buffer and relative luciferase activities determined using the Britelite substrate and a luminescence counter as outlined above.

[7] = test system: para- and orthomyxovirus family members; assay: organism not typed; type: cell-based
[8] = Cytotoxicity (metabolic activity), NIH-3T3; type: cell-based, Rodent-mouse; details: mouse, NIH-3T3 cells, highest concentration assessed 75 µM
Method: as §1

MeV-Alaska [9] = assay: Immunodetection of virus-encoded MeV-F; type: cell-based, measles virus; details: 100 nM
[10] = Cytotoxicity (metabolic activity), HeLa; type: cell-based; details: human, HeLa cells, highest concentration assessed 75 µM
Method: as §1

vaccinia virus = type: cell-based; details: compared with activity against myxoviruses
MeV (Alaska) = assay: microbe, parasite or virus in culture; type: cell-based, measles virus isolate MVi/Alaska.USA/16.00; details: Measles morbillivirus
[11] = Stability in human plasma; details: 120-minute incubation, 37°C
HeLa cells = assay: Flow-cytometric analysis of cell cycle progression; type: cell-based, human; details: JMN3-003 10 µM 36 hours, nocodazole 200 ng/ml
Method: Actively proliferating HeLa cells were exposed to JMN3-003 (10 µM), hydroxyurea (4 mM), or nocodazole (200 ng/ml) for 36 hours, followed by resuspension in buffer I (20 mM citrate/PO, pH 3.0, 0.1 mM EDTA, 0.2 M Sucrose, 0.1% Triton X-100) and staining in buffer II (10 mM Citrate/PO, pH 3.8, 0.1 M sodium chloride, 20 µg/ml acridine orange) as described. Green fluorescence at 525 nm resulting from DNA intercalating acridine orange was then measured using a BD LSRII flow cytometer and FlowJo software (Tree Star) for data analysis. For comparison, unstained and stained, solvent-only exposed cells were examined in parallel.

MeV-Alaska particles = assay: Virus pre-incubation (virucidal activity) assay; type: cell-based, measles virus; details: 1.0 µM for 60 minutes, diluted to 1.0 nM
Vero cells = assay: Cell growth rates after compound wash-out; type: cell-based; details: 10 µM for 30 hours, 72-hour growth
Method: Vero cells were seeded at a density of 6×10^5 cells and incubated in the presence of 10 µM JMN3-003 or vehicle only for 30 hours at 37°C. Cells were then washed extensively and reseeded at a density of 1×10^5 cells per well, followed by continued incubation at 37°C and assessment of life/dead cell numbers every 24 hours using a Countess automated cell counter (Invitrogen). Cells were reseeded as before when fastest growing cultures approached confluency. Growth rates were calculated for each 24-hour time interval using the Prism software package (GraphPad Software Inc.) based on the formula Y = Y0*exp(K*X) with Y equaling life cell numbers, Y0 the Y value at the starting time (t0), and K the growth constant equaling ln(2)/doubling-time.

Chain of MeV RdRp (P12576 whole entry, change not shown): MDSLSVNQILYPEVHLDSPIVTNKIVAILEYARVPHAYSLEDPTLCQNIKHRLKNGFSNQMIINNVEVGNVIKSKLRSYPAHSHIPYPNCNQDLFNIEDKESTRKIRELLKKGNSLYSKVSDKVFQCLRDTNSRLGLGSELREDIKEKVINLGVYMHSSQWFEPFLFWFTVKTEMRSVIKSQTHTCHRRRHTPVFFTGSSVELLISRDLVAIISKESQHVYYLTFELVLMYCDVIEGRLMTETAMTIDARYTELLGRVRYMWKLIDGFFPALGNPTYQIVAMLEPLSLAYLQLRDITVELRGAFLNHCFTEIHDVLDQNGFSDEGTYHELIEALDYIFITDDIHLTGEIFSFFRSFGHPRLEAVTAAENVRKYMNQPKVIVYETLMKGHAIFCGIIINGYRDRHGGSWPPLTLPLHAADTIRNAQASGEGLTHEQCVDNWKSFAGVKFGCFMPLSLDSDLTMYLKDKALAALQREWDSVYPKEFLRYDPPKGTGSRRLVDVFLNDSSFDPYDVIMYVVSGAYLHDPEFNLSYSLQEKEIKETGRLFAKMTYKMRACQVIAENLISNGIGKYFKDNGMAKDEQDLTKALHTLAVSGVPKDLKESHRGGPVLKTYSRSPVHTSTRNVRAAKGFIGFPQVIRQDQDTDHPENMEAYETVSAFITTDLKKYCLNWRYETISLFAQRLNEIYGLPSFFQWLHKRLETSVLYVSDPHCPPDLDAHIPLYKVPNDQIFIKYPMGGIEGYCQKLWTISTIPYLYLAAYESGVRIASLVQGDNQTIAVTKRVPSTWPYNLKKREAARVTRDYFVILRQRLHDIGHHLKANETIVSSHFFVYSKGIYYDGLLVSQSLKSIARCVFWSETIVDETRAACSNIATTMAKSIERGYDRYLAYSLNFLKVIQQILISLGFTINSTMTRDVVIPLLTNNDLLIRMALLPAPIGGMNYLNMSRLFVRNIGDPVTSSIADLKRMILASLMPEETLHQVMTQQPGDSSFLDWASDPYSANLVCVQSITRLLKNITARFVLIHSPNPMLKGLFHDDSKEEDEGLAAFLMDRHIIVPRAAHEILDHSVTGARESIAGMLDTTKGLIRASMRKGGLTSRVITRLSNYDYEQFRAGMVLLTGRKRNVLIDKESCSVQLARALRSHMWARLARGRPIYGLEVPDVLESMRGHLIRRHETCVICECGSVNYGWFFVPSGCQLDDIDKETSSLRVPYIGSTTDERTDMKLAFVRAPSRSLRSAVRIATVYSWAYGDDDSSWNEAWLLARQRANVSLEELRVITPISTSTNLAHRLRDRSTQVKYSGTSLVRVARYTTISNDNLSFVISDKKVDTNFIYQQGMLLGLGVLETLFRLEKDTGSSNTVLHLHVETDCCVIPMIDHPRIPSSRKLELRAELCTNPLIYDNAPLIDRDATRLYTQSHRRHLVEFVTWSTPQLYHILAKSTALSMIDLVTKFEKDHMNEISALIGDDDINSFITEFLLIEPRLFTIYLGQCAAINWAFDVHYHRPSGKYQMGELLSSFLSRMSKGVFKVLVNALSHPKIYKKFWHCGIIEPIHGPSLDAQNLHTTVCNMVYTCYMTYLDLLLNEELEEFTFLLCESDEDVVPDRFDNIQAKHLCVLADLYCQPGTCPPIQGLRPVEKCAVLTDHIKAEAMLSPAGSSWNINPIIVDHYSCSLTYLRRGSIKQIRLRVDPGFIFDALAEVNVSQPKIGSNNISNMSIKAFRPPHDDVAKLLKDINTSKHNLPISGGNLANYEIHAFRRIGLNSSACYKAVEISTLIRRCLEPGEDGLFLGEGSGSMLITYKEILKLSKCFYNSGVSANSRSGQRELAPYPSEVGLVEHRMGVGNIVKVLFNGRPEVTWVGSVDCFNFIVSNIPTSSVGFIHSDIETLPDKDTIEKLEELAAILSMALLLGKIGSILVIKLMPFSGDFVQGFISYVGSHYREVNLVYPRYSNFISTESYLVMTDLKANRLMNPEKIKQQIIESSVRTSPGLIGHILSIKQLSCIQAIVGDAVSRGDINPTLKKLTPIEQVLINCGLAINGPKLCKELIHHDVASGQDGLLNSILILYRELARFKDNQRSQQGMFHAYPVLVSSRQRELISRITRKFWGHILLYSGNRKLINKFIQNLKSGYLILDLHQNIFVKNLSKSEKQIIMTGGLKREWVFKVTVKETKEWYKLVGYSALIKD
Chain of MeV RdRp (P03422 whole entry partner): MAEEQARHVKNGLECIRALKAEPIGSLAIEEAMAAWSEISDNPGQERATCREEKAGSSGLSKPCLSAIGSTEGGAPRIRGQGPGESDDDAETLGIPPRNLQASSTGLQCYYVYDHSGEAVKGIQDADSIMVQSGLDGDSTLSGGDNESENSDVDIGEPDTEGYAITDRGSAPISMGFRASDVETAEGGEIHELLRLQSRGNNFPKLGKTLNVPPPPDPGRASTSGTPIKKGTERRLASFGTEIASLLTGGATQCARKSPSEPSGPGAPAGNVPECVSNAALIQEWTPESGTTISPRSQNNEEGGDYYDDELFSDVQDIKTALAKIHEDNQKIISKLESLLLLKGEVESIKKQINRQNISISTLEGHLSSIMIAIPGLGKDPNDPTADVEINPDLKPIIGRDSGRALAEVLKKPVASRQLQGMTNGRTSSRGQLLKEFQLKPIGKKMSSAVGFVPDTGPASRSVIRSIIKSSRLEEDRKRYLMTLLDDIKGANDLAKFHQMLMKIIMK
Chain of MeV RdRp (P0DXN6 whole entry partner): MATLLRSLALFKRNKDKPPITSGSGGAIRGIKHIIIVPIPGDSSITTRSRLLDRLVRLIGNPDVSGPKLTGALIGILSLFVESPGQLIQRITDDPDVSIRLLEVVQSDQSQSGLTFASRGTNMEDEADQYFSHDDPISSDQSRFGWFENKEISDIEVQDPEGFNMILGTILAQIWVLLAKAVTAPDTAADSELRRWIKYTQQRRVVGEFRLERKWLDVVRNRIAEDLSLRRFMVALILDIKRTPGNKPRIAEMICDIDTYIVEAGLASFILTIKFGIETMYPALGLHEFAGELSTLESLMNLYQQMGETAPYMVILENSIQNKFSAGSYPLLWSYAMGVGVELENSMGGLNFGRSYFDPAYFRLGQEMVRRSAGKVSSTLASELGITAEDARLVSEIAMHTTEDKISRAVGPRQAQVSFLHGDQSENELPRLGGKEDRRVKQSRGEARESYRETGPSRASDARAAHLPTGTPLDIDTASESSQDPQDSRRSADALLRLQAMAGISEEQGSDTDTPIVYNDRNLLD

In the case of `COc1ccc(-n2c(SC(C)C(=O)Nc3ccc(C)cc3Cl)nc3ccccc32)cc1` (centres unmarked) [JMN3-003], the CC50 at 24 h [1] is reported as greater than 75000 nM, the EC50 (HPIV3) is reported as 80 ± 10 nM and the “activity against sindbis virus” value (sindbis virus) is reported as “to a lesser degree”. For the same compound, the CC50 at 24 h [2] was greater than 75000 nM, the “phosphorylation status of cdc2-cyclin B kinase” value (cdc2-cyclin B kinase) was “increased steady state levels of phosphorylated cdc2-cyclin B kinase” and the EC50 (MuV (S. Africa)) was 33 ± 31 nM. The EC50 (RSV (Long)) was 70 ± 10 nM, the EC50 (Influenza A/WSN [3]; Influenza A virus, WSN, HT-1080, host cell HT1080 (Human), read-out: EC50, Inhibition of Influenza A/WSN) was 60 ± 2 nM and the EC50 (Influenza A/WSN [3]; Influenza A virus, WSN, MDCK, read-out: EC50, Inhibition of Influenza A/WSN) was 10 nM. The EC50 (Influenza A/WSN [3]; Influenza A virus, WSN, NIH3T3, host cell NIH-3T3 (Rodent-mouse), read-out: EC50, Inhibition of Influenza A/WSN) was greater than 10000 nM, the EC50 (Influenza A/WSN [3]; Influenza A virus, WSN, genome copy numbers of released progeny particles by TaqMan RT-PCR, read-out: EC50, Influenza A/WSN) was 10 ± 8 nM and the EC50 (Influenza A/WSN [3]; Influenza A virus, WSN, host cell BHK-21 (Rodent-Syrian hamster), read-out: EC50, Inhibition of Influenza A/WSN) was 80 ± 10 nM. For the same compound, the EC50 (Influenza A/WSN [3]; Influenza A virus, WSN, host cell CHO (Rodent-Chinese hamster), read-out: EC50, Inhibition of Influenza A/WSN) was 70 ± 10 nM, the EC50 (Influenza A/WSN [3]; Influenza A virus, WSN, host cell DF-1 (Avian-chicken), read-out: EC50, Inhibition of Influenza A/WSN) was greater than 10000 nM and the EC50 (Influenza A/WSN [3]; Influenza A virus, WSN, host cell HeLa (Human), read-out: EC50, Inhibition of Influenza A/WSN) was 20 ± 10 nM. For the same compound, the EC50 (Influenza A/WSN [3]; host cell MEL B16 (Rodent-mouse), read-out: EC50, Inhibition of Influenza A/WSN) was greater than 10000 nM, the “inhibition profile in time-of-addition experiment” value (MeV-Alaska [4]) was “very closely resembled the profile of the AS-136A RdRp blocker class” and the “drop in relative viral antigenome levels” value (Influenza A/WSN [5]) was greater than 100 fold. For the same compound, the “reduction in genome copies of released progeny virions” value (Influenza A/WSN [5]) was > 10,000 fold, the CC50 at 24 h [6] was greater than 75000 nM and the EC50 (SOI Influenza A/Mexico) was 10 ± 3 nM. For the same compound, the “concentration at which luciferase reporter expression was fully blocked” value (MeV RdRp) was “approximately 100 nM”, the EC50 ([7]; range depending on the target virus, read-out: active concentrations (anti-myxovirus activity)) was 10 to 80 nM and the EC50 ([7]; unidentified influenza virus, read-out: average EC50 concentrations) was roughly 40 nM. The CC50 at 24 h [8] was greater than 75000 nM, the “expression of virus-encoded proteins, paramyxovirus infection” value (MeV-Alaska [9]) was “fully blocked” and the CC50 at 24 h [10] was greater than 75000 nM. For the same compound, the “activity against vaccinia virus” value (vaccinia virus) was “to a lesser degree”, the EC50 (MeV (Alaska); PBMC, hPBMC from a mixed pool of healthy donors, four-parameter non-linear regression, read-out: EC50, MeV-Alaska grown on human PBMCs) was 90 ± 50 nM and the EC50 (MeV (Alaska); read-out: EC50, MeV (Alaska)) was 30 ± 20 nM. The EC50 (MeV (Alaska); Vero-Slam, comparison curve of figure 2, read-out: EC50, MeV-Alaska grown on Vero-Slam cells) was 40 ± 20 nM, the “stability in human plasma” value [11] was “virtually unaffected” and the “DNA content of treated cells by flow cytometry” value (HeLa cells) was “accumulation of cells in a single population with 2N DNA content”. The “antiviral effect of preincubation of viral particles (virucidal activity)” value (MeV-Alaska particles) was “lacked any appreciable antiviral effect” and the “proliferation rates after removal of compound” value (Vero cells) was “proliferation rates resumed those of untreated control cells”.
